# Source: patent US20250179059A1 (The Regents of the University of California, priority 2021, published 2025)
# How the values were obtained:
# [1] = target: T1, human BRD4 bromodomain II (Homo sapiens, UniProt O60885); test: Bromodomain binding assay (AlphaScreen), BRD4 BDII; conditions: BRD4 BDII AlphaScreen assay; read-out: BRD4 BD2 IC50
# T1 construct: human BRD4 bromodomain II [based on Genbank NM_058243, residues 349-460]; host or cells: E. coli
# How it was run: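 AlphaScreen competition with biotinylated H4 peptide (aa 1-21, K5/K8/K12/K16Ac), using nickel-chelate acceptor and streptavidin donor beads. Targets were His6-BRD4 BDI (44-170) or BDII (349-460), with a 30 min compound preincubation over a 10-point 3-fold series. IC50 was fitted from percentage peptide binding.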
# [2] = tested on: human SKM-1 acute myeloid leukemia cells; test: SKM-1 antiproliferation cell-based assay (ATPlite); conditions: Homo sapiens, SKM-1, SKM-1 antiproliferation assay
# How it was run: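 Log-phase cells in RPMI 1640/15% FBS were seeded at 34722 cells/mL and exposed for 4 days to nine-concentration DMSO serial dilutions in triplicate. Viability was read as ATP luminescence (ATPlite 1step), and IC50 values came from variable-slope non-linear regression.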
IC50 [1],GI50 [2],SMILES
0.01 to 1 nM,30 to 300 nM,COc1ncc(-c2cc(F)cc(-c3ccc(-n4ccn(C)c4=O)c(Cl)c3)c2O)cc1N1CC(F)(F)[C@](C)(O)C1 [Example 900]
0.01 to 1 nM,30 to 300 nM,Cn1ccn(-c2ccc(-c3cc(F)cc(-c4cccc(N5CCN(C(C)(C)C)CC5=O)c4)c3O)cc2Cl)c1=O [Example 901]
0.01 to 1 nM,0.3 to 30 nM,COc1ncc(-c2cc(F)cc(-c3ccc(-n4ccn(C)c4=O)c(Cl)c3)c2O)cc1N1CC[C@@]2(CCN2C(C)C)C1 [Example 902]
0.01 to 1 nM,0.3 to 30 nM,COc1ncc(-c2cc(F)cc(-c3ccc(-n4ccn(C)c4=O)c(Cl)c3)c2O)cc1N1CC[C@]2(CCN2C(C)C)C1 [Example 903]
0.01 to 1 nM,30 to 300 nM,Cn1ccn(-c2ccc(-c3cc(F)cc(-c4cc(Cl)c(F)c(N5CCN(C(C)(C)C)CC5)c4)c3O)cc2Cl)c1=O [Example 904]
1 to 10 nM,30 to 300 nM,"Cn1ccn(-c2ccc(-c3cc(F)cc(-c4cc(N5CCN(C(C)(C)C)CC5)no4)c3O)cc2Cl)c1=O [Example 905, 1-(3′-(3-(4-(tert-butyl)piperazin-1-yl)isoxazol-5-yl)-3-chloro-5′-fluoro-2′-hydroxy-[1,1′-biphenyl]-4-yl)-3-methyl-1H-imidazol-2(3H)-one]"
0.01 to 1 nM,0.3 to 30 nM,"CC(C)N1[C@H](C)CN(c2cccc(-c3cc(F)cc(-c4ccc(-n5ccn(C)c5=O)c(Cl)c4)c3O)c2)C[C@@H]1C [Example 906, 1-(3-chloro-5′-fluoro-2′-hydroxy-3″-((3R,5S)-4-isopropyl-3,5-dimethylpiperazin-1-yl)-[1,1′:3′,1″-terphenyl]-4-yl)-3-methyl-1H-imidazol-2(3H)-one]"
> 100 nM,> 3000 nM,"CC(=O)Nc1ncc(-c2cc(F)cc(-c3cccc(N4CCN(C(C)(C)C)CC4)c3)c2O)cn1 [Example 907, N-(5-(3′-(4-(tert-butyl)piperazin-1-yl)-5-fluoro-2-hydroxy-[1,1′-biphenyl]-3-yl)pyrimidin-2-yl)acetamide]"
> 100 nM,> 3000 nM,"CC(=O)Nc1ccc(-c2cc(F)cc(-c3cccc(N4CCN(C(C)(C)C)CC4)c3)c2O)cn1 [Example 908, N-(5-(3′-(4-(tert-butyl)piperazin-1-yl)-5-fluoro-2-hydroxy-[1,1′-biphenyl]-3-yl)pyridin-2-yl)acetamide]"
1 to 10 nM,30 to 300 nM,"CC(C)N1CCCC12CCN(c1cccc(-c3cc(F)cc(-c4ccc(-n5ccn(C)c5=O)c(Cl)c4)c3O)c1)C2 (stereo not drawn) [Example 909, 1-(3-chloro-5′-fluoro-2′-hydroxy-3″-(1-isopropyl-1,7-diazaspiro[4.4]nonan-7-yl)-[1,1′:3′,1″-terphenyl]-4-yl)-3-methyl-1H-imidazol-2(3H)-one]"
10 to 100 nM,30 to 300 nM,"COc1cc(-c2cc(F)cc(-c3cccc(N4CCN(C(C)(C)C)CC4)c3)c2O)cc(Cl)c1-n1ccn(C)c1=O [Example 910, 1-(3″-(4-(tert-butyl)piperazin-1-yl)-3-chloro-5′-fluoro-2′-hydroxy-5-methoxy-[1,1′:3′,1″-terphenyl]-4-yl)-3-methyl-1H-imidazol-2(3H)-one]"
0.01 to 1 nM,0.3 to 30 nM,"Cc1ncc(-c2cc(F)cc(-c3ccc(-n4ccn(C)c4=O)c(Cl)c3)c2O)cc1N1CCC2(CCCN2C(C)C)C1 (stereo not drawn) [Example 911, 1-(3-chloro-5′-fluoro-2′-hydroxy-3′-(5-(1-isopropyl-1,7-diazaspiro[4.4]nonan-7-yl)-6-methylpyridin-3-yl)-[1,1′-biphenyl]-4-yl)-3-methyl-1H-imidazol-2(3H)-one]"
> 100 nM,300 to 3000 nM,"CC(=O)Nc1ccc(-c2cc(F)cc(-c3cccc(N4CCN(C(C)(C)C)CC4)c3)c2O)nc1 [Example 912, N-(6-(3′-(4-(tert-butyl)piperazin-1-yl)-5-fluoro-2-hydroxy-[1,1′-biphenyl]-3-yl)pyridin-3-yl)acetamide]"
0.01 to 1 nM,0.3 to 30 nM,"COc1ncc(-c2cc(F)cc(-c3ccc(-n4ccn(C)c4=O)c(Cl)c3)c2O)cc1N1CCC2(CCCN2C(C)C)C1 (stereo not drawn) [Example 913, 1-(3-chloro-5′-fluoro-2′-hydroxy-3′-(5-(1-isopropyl-1,7-diazaspiro[4.4]nonan-7-yl)-6-methoxypyridin-3-yl)-[1,1′-biphenyl]-4-yl)-3-methyl-1H-imidazol-2(3H)-one]"
1 to 10 nM,0.3 to 30 nM,"Cn1ccn(-c2ccc(-c3cc(F)cc(-c4cnc(N)c(N5CCN(C(C)(C)C)CC5)c4)c3O)cc2Cl)c1=O [Example 914, 1-(3′-(6-amino-5-(4-(tert-butyl)piperazin-1-yl)pyridin-3-yl)-3-chloro-5′-fluoro-2′-hydroxy-[1,1′-biphenyl]-4-yl)-3-methyl-1H-imidazol-2(3H)-one]"
0.01 to 1 nM,30 to 300 nM,"Cn1ccn(-c2ccc(-c3cc(F)cc(-c4ccnc(N5CCS(=N)(=O)CC5)c4)c3O)cc2Cl)c1=O [Example 915, 1-(3-chloro-5′-fluoro-2′-hydroxy-3′-(2-(1-imino-1-oxidothiomorpholino)pyridin-4-yl)-[1,1′-biphenyl]-4-yl)-3-methyl-1H-imidazol-2(3H)-one]"
0.01 to 1 nM,0.3 to 30 nM,"Cc1cc(-c2ccc(-n3ccn(C)c3=O)c(Cl)c2)c(O)c(-c2cccc(N3CCN(C(C)(C)C)CC3)c2)n1 [Example 916, 1-(4-(2-(3-(4-(tert-Butyl)piperazin-1-yl)phenyl)-3-hydroxy-6-methylpyridin-4-yl)-2-chlorophenyl)-3-methyl-1H-imidazol-2(3H)-one]"
1 to 10 nM,30 to 300 nM,"Cc1cc(-c2cccc(N3CCN(C(C)(C)C)CC3)c2)c(O)c(-c2ccc(-n3ccn(C)c3=O)c(Cl)c2)n1 [Example 917, 1-(4-(4-(3-(4-(tert-Butyl)piperazin-1-yl)phenyl)-3-hydroxy-6-methylpyridin-2-yl)-2-chlorophenyl)-3-methyl-1H-imidazol-2(3H)-one]"
1 to 10 nM,0.3 to 30 nM,"CN1CCN(c2ccc(-c3cc(F)cc(-c4cccc(N5CCN(C(C)(C)C)CC5)c4)c3O)cc2Cl)C1=O [Example 918, 1-(3″-(4-(tert-butyl)piperazin-1-yl)-3-chloro-5′-fluoro-2′-hydroxy-[1,1′:3′,1″-terphenyl]-4-yl)-3-methylimidazolidin-2-one]"
1 to 10 nM,300 to 3000 nM,"CC(=O)Nc1ccc(-c2cc(F)cc(-c3cccc(N4CCN(C(C)(C)C)CC4)c3)c2O)cc1Cl [Example 919, N-(3″-(4-(tert-butyl)piperazin-1-yl)-3-chloro-5′-fluoro-2′-hydroxy-[1,1′:3′,1″-terphenyl]-4-yl)acetamide]"
> 100 nM,30 to 300 nM,"Cc1nc(-c2cccc(N3CCN(C(C)(C)C)CC3)c2)c(O)c(-c2ccc(-n3ccn(C)c3=O)c(Cl)c2)n1 [Example 920, 1-(4-{6-[3-(4-tert-Butyl-piperazin-1-yl)-phenyl]-5-hydroxy-2-methyl-pyrimidin-4-yl}-2-chloro-phenyl)-3-methyl-1,3-dihydro-imidazol-2-one]"
10 to 100 nM,300 to 3000 nM,"CNC(=O)Nc1ccc(-c2cc(F)cc(-c3cccc(N4CCN(C(C)(C)C)CC4)c3)c2O)cc1Cl [Example 921, 1-(3″-(4-(tert-Butyl)piperazin-1-yl)-3-chloro-5′-fluoro-2′-hydroxy-[1,1′:3′,1″-terphenyl]-4-yl)-3-methylurea]"
0.01 to 1 nM,0.3 to 30 nM,"CN(C)c1ncc(-c2cc(F)cc(-c3ccc(-n4ccn(C)c4=O)c(Cl)c3)c2O)cc1N1CCN(C(C)(C)C)CC1 [Example 922, 1-(3′-(5-(4-(tert-Butyl)piperazin-1-yl)-6-(dimethylamino)pyridin-3-yl)-3-chloro-5′-fluoro-2′-hydroxy-[1,1′-biphenyl]-4-yl)-3-methyl-1H-imidazol-2(3H)-one]"
0.01 to 1 nM,0.3 to 30 nM,"CNc1ncc(-c2cc(F)cc(-c3ccc(-n4ccn(C)c4=O)c(Cl)c3)c2O)cc1N1CCN(C(C)(C)C)CC1 [Example 923, 1-(3′-(5-(4-(tert-Butyl)piperazin-1-yl)-6-(methylamino)pyridin-3-yl)-3-chloro-5′-fluoro-2′-hydroxy-[1,1′-biphenyl]-4-yl)-3-methyl-1H-imidazol-2(3H)-one]"
10 to 100 nM,30 to 300 nM,"CCOc1cc(-c2cc(F)cc(-c3cccc(N4CCN(C(C)(C)C)CC4)c3)c2O)cc(Cl)c1-n1ccn(C)c1=O [Example 925, 1-(3″-(4-(tert-Butyl)piperazin-1-yl)-3-chloro-5-ethoxy-5′-fluoro-2′-hydroxy-[1,1′:3′,1″-terphenyl]-4-yl)-3-methyl-1H-imidazol-2(3H)-one]"
0.01 to 1 nM,0.3 to 30 nM,"[2H]C([2H])([2H])Oc1ncc(-c2cc(F)cc(-c3ccc(-n4ccn(C)c4=O)c(Cl)c3)c2O)cc1N1CCN(C(C)(C)C)CC1 [Example 926, 1-(3′-(5-(4-(tert-Butyl)piperazin-1-yl)-6-(methoxy-d3)pyridin-3-yl)-3-chloro-5′-fluoro-2′-hydroxy-[1,1′-biphenyl]-4-yl)-3-methyl-1,3-dihydro-2H-imidazol-2-one]"

SMILES,IC50 [1],GI50 [2]
"CC(C)COc1cc(-c2cc(F)cc(-c3cccc(N4CCN(C(C)(C)C)CC4)c3)c2O)cc(Cl)c1-n1ccn(C)c1=O [Example 924, 1-(3″-(4-(tert-Butyl)piperazin-1-yl)-3-chloro-5′-fluoro-2′-hydroxy-5-isobutoxy-[1,1′:3′,1″-terphenyl]-4-yl)-3-methyl-1H-imidazol-2(3H)-one]",10 to 100 nM,30 to 300 nM
